Read-outs that look alike come from different tables or passages of the source. Positions of bridges follow the written chain, without caps; N, C: chain ends. Residues, ends and D or L forms follow the SMILES beside them.
Tests used:
Assay type in all cases: binding
[1] = biological target: T1, FGF-R4 ECD (Homo sapiens, UniProt P22455); experiment: single concentration BLI of crude peptides; details: read-out: KD (4)
T1 construct: DNA constructs for the extracellular domain (ECD) of human FGF-; HPC4 (C); made in house; host or cells: HEK 293-6E
T1 sequence (P22455 22-369 limits assumed): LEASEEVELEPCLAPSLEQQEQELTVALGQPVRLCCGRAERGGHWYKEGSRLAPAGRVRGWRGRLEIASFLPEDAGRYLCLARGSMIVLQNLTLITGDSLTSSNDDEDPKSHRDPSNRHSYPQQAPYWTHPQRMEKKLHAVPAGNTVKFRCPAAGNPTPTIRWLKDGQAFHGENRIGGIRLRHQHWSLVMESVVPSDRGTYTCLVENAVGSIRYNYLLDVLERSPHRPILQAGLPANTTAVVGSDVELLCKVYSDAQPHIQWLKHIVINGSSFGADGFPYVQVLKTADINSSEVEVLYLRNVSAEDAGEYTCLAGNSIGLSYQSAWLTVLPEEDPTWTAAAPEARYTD
In short: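 Biotinylated FGF-R ECD on streptavidin biosensors was dipped into ~1 μM crude peptide in PBS pH7.4 with 0.05% Tween-20 and 0.01% BSA for association, then into buffer for dissociation, and followed by BLI. Fitted KD values were adjusted for peptide concentration measured by UPLC-CAD.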

[2] = biological target: T2, FGF-R1C ECD (Homo sapiens, UniProt P11362); experiment: biochemical; design: DNA constructs for the extracellular domain (ECD) of human FGF-; HPC4 (C); made in house; host or cells: HEK 293-6E
T2 sequence (P11362 22-376 limits assumed): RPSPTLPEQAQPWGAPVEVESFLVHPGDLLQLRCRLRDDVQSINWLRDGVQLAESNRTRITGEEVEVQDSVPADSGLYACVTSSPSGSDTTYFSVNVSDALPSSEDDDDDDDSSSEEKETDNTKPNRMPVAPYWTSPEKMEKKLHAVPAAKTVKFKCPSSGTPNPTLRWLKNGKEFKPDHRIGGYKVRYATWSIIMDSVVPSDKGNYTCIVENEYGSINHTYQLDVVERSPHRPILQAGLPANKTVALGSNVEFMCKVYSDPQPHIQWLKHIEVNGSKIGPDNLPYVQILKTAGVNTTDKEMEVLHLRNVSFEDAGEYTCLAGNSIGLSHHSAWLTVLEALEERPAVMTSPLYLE
In short: (§1)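 Biolayer interferometry with biotinylated FGF-R ECD on streptavidin biosensors in PBS pH 7.4, 0.05% Tween-20, 0.01% BSA. Multi-concentration: purified peptide dilution series fitted to a multi-point KD model.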

[3] = biological target: T3, FGF-R3C ECD (Homo sapiens, UniProt P22607); experiment: biochemical; design: DNA constructs for the extracellular domain (ECD) of human FGF-; HPC4 (C); made in house; host or cells: HEK 293-6E
T3 sequence (P22607 23-375 limits assumed): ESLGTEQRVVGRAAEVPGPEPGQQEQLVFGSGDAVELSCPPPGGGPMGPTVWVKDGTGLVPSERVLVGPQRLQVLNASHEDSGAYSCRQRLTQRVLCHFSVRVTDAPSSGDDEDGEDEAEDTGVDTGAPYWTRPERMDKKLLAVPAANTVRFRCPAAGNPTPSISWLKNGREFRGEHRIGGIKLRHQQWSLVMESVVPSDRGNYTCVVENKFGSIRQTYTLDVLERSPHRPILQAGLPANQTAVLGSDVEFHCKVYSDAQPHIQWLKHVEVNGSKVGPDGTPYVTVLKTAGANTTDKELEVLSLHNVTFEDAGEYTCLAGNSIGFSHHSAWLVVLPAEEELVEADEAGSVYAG
In short: as §1

[4] = crude NNK peptides, single concentration BLI (Table S3)
[5] = crude T18 selection 1 (1:1:1) peptides, single concentration BLI (Table S4)

Row | SMILES | Kd [1, 4] [µM] | Kd [2] [µM] | Kd [3] [µM] | Kd [1, 5] [µM]
1 | CC[C@H](C)[C@@H]1NC(=O)[C@H](CC(N)=O)NC(=O)[C@@H](NC(=O)[C@H](CCSC)NC(C)=O)CSSC[C@@H](C(=O)NCC(=O)N[C@@H](CO)C(=O)NCC(=O)N[C@@H](CO)C(=O)N[C@@H](CC(=O)O)C(=O)N[C@@H](Cc2ccc(O)cc2)C(=O)N[C@@H](CCCCN)C(=O)N[C@@H](CC(=O)O)C(=O)N[C@@H](CC(=O)O)C(=O)N[C@@H](CC(=O)O)C(=O)N[C@@H](CC(=O)O)C(=O)N[C@@H](CCCCN)C(N)=O)NC(=O)[C@H](C(C)C)NC(=O)[C@H](CO)NC(=O)[C@H](CC(C)C)NC(=O)[C@H]([C@@H](C)CC)NC(=O)[C@H](CCCCN)NC(=O)[C@H](Cc2ccc(O)cc2)NC(=O)[C@H](CC(C)C)NC(=O)[C@H](CC(C)C)NC1=O (Ac-MCNILLYKILSVCGSGSDYKDDDDK-NH2; disulfide 2-13) | 0.105 | > 10 | > 10 | 
2 | CSCC[C@H](NC(C)=O)C(=O)N[C@H]1CSSC[C@@H](C(=O)NCC(=O)N[C@@H](CO)C(=O)NCC(=O)N[C@@H](CO)C(=O)N[C@@H](CC(=O)O)C(=O)N[C@@H](Cc2ccc(O)cc2)C(=O)N[C@@H](CCCCN)C(=O)N[C@@H](CC(=O)O)C(=O)N[C@@H](CC(=O)O)C(=O)N[C@@H](CC(=O)O)C(=O)N[C@@H](CC(=O)O)C(=O)N[C@@H](CCCCN)C(N)=O)NC(=O)[C@H](C)NC(=O)[C@H](CC(C)C)NC(=O)[C@H](CC(C)C)NC(=O)[C@H](C)NC(=O)[C@@H]2CCCN2C(=O)[C@H](Cc2ccccc2)NC(=O)[C@H](Cc2ccccc2)NC(=O)[C@H](CCCNC(=N)N)NC(=O)[C@H](Cc2c[nH]c3ccccc23)NC(=O)[C@H](Cc2ccccc2)NC1=O (Ac-MCFWRFFPALLACGSGSDYKDDDDK-NH2; disulfide 2-13) | > 10 | > 10 | > 10 | 
3 | CSCC[C@H](NC(C)=O)C(=O)N[C@H]1CSSC[C@@H](C(=O)NCC(=O)N[C@@H](CO)C(=O)NCC(=O)N[C@@H](CO)C(=O)N[C@@H](CC(=O)O)C(=O)N[C@@H](Cc2ccc(O)cc2)C(=O)N[C@@H](CCCCN)C(=O)N[C@@H](CC(=O)O)C(=O)N[C@@H](CC(=O)O)C(=O)N[C@@H](CC(=O)O)C(=O)N[C@@H](CC(=O)O)C(=O)N[C@@H](CCCCN)C(N)=O)NC(=O)[C@H](Cc2c[nH]c3ccccc23)NC(=O)[C@H](CCC(N)=O)NC(=O)[C@H](CCCCN)NC(=O)[C@H](Cc2c[nH]c3ccccc23)NC(=O)[C@H](CC(C)C)NC(=O)[C@H](CC(C)C)NC(=O)[C@H](Cc2ccccc2)NC(=O)[C@H](CC(C)C)NC(=O)[C@H](CCCCN)NC(=O)[C@H](Cc2ccc(O)cc2)NC1=O (Ac-MCYKLFLLWKQWCGSGSDYKDDDDK-NH2; disulfide 2-13) | > 10 | > 10 | > 10 | 
4 | CSCC[C@H](NC(C)=O)C(=O)N[C@H]1CSSC[C@@H](C(=O)NCC(=O)N[C@@H](CO)C(=O)NCC(=O)N[C@@H](CO)C(=O)N[C@@H](CC(=O)O)C(=O)N[C@@H](Cc2ccc(O)cc2)C(=O)N[C@@H](CCCCN)C(=O)N[C@@H](CC(=O)O)C(=O)N[C@@H](CC(=O)O)C(=O)N[C@@H](CC(=O)O)C(=O)N[C@@H](CC(=O)O)C(=O)N[C@@H](CCCCN)C(N)=O)NC(=O)[C@H](Cc2ccc(O)cc2)NC(=O)[C@H](C(C)C)NC(=O)[C@H](Cc2ccc(O)cc2)NC(=O)[C@H](Cc2c[nH]c3ccccc23)NC(=O)[C@H](CO)NC(=O)[C@H](CCCCN)NC(=O)[C@H](Cc2c[nH]cn2)NC(=O)[C@H](Cc2ccc(O)cc2)NC(=O)[C@H](Cc2ccc(O)cc2)NC(=O)[C@H](Cc2ccccc2)NC(=O)[C@H](Cc2c[nH]c3ccccc23)NC(=O)[C@H](CCC(=O)O)NC1=O (Ac-MCEWFYYHKSWYVYCGSGSDYKDDDDK-NH2; disulfide 2-15) |  | 0.191 | > 10 | > 10
5 | CC[C@H](C)[C@@H]1NC(=O)[C@H](CO)NC(=O)[C@@H](NC(=O)[C@H](CCSC)NC(C)=O)CSSC[C@@H](C(=O)NCC(=O)N[C@@H](CO)C(=O)NCC(=O)N[C@@H](CO)C(=O)N[C@@H](CC(=O)O)C(=O)N[C@@H](Cc2ccc(O)cc2)C(=O)N[C@@H](CCCCN)C(=O)N[C@@H](CC(=O)O)C(=O)N[C@@H](CC(=O)O)C(=O)N[C@@H](CC(=O)O)C(=O)N[C@@H](CC(=O)O)C(=O)N[C@@H](CCCCN)C(N)=O)NC(=O)[C@H](CC(C)C)NC(=O)[C@@H]2CCCN2C(=O)[C@H](CCCCN)NC(=O)[C@H]([C@@H](C)O)NC(=O)[C@H]([C@@H](C)CC)NC(=O)[C@H](CCCCN)NC(=O)[C@H](Cc2ccc(O)cc2)NC(=O)[C@H](Cc2c[nH]c3ccccc23)NC(=O)[C@H](CC(C)C)NC1=O (Ac-MCSILWYKITKPLCGSGSDYKDDDDK-NH2; disulfide 2-14) |  | > 10 | > 10 | 0.013
6 | CC[C@H](C)[C@@H]1NC(=O)[C@H](CCC(=O)O)NC(=O)[C@H](CCCNC(=N)N)NC(=O)[C@@H](NC(=O)[C@H](CCSC)NC(C)=O)CSSC[C@@H](C(=O)NCC(=O)N[C@@H](CO)C(=O)NCC(=O)N[C@@H](CO)C(=O)N[C@@H](CC(=O)O)C(=O)N[C@@H](Cc2ccc(O)cc2)C(=O)N[C@@H](CCCCN)C(=O)N[C@@H](CC(=O)O)C(=O)N[C@@H](CC(=O)O)C(=O)N[C@@H](CC(=O)O)C(=O)N[C@@H](CC(=O)O)C(=O)N[C@@H](CCCCN)C(N)=O)NC(=O)[C@H](CCC(N)=O)NC(=O)[C@H](Cc2c[nH]c3ccccc23)NC(=O)[C@H](CC(C)C)NC(=O)[C@H](CCC(N)=O)NC(=O)[C@H](Cc2c[nH]c3ccccc23)NC(=O)[C@H](Cc2ccc(O)cc2)NC(=O)[C@H](CCCNC(=N)N)NC1=O (Ac-MCREIRYWQLWQCGSGSDYKDDDDK-NH2; disulfide 2-13) |  | > 10 | > 10 | 0.027
7 | CC[C@H](C)[C@@H]1NC(=O)[C@H](CCCCN)NC(=O)[C@H](Cc2ccc(O)cc2)NC(=O)[C@H](Cc2c[nH]c3ccccc23)NC(=O)[C@H](CC(C)C)NC(=O)[C@H](C(C)C)NC(=O)[C@H]([C@@H](C)O)NC(=O)[C@H](Cc2ccc(O)cc2)NC(=O)[C@H](CC(C)C)NC(=O)[C@H](CC(=O)O)NC(=O)[C@@H](NC(=O)[C@H](CCSC)NC(C)=O)CSSC[C@@H](C(=O)NCC(=O)N[C@@H](CO)C(=O)NCC(=O)N[C@@H](CO)C(=O)N[C@@H](CC(=O)O)C(=O)N[C@@H](Cc2ccc(O)cc2)C(=O)N[C@@H](CCCCN)C(=O)N[C@@H](CC(=O)O)C(=O)N[C@@H](CC(=O)O)C(=O)N[C@@H](CC(=O)O)C(=O)N[C@@H](CC(=O)O)C(=O)N[C@@H](CCCCN)C(N)=O)NC(=O)[C@H](CCC(=O)O)NC(=O)[C@H](CCCCN)NC(=O)[C@H](CCC(N)=O)NC1=O (Ac-MCDLYTVLWYKIQKECGSGSDYKDDDDK-NH2; disulfide 2-16) |  | 0.021 | > 10 | 0.019
8 | CSCC[C@H](NC(C)=O)C(=O)N[C@H]1CSSC[C@@H](C(=O)NCC(=O)N[C@@H](CO)C(=O)NCC(=O)N[C@@H](CO)C(=O)N[C@@H](CC(=O)O)C(=O)N[C@@H](Cc2ccc(O)cc2)C(=O)N[C@@H](CCCCN)C(=O)N[C@@H](CC(=O)O)C(=O)N[C@@H](CC(=O)O)C(=O)N[C@@H](CC(=O)O)C(=O)N[C@@H](CC(=O)O)C(=O)N[C@@H](CCCCN)C(N)=O)NC(=O)[C@H](CCC(N)=O)NC(=O)[C@H](Cc2c[nH]cn2)NC(=O)[C@H](Cc2c[nH]c3ccccc23)NC(=O)[C@H](CC(C)C)NC(=O)[C@H]([C@@H](C)O)NC(=O)[C@H](CCC(=O)O)NC(=O)[C@H](Cc2ccc(O)cc2)NC(=O)[C@@H]2CCCN2C(=O)[C@H](Cc2c[nH]cn2)NC(=O)[C@H](CCCNC(=N)N)NC(=O)[C@H](Cc2c[nH]cn2)NC(=O)[C@H]([C@@H](C)O)NC1=O (Ac-MCTHRHPYETLWHQCGSGSDYKDDDDK-NH2; disulfide 2-15) |  | > 10 | > 10 | > 10

Source: PMC10763615, “Identification and engineering of potent cyclic peptides with selective or promiscuous binding through biochemical profiling and bioinformatic data analysis” (RSC Chemical Biology, 2023)
